From US6846807B1, “Colorectal neoplasia prophylaxis” (Board of Regents, The University of Texas System, priority 2003, dated 2005)

What was measured:
[1] = tested on: azoxymethane (AOM) and 1,2-dimethyl hydrazine (DMH)-induced colon cancers; conditions: AOM and DMH chemical carcinogenesis models; cited from earlier work
colorectal adenomas = test: Double-blind, placebo-controlled trial of colorectal adenomas in patients with previous colorectal cancer; format: in vivo, human; conditions: daily use of 1 or 2 g, patients with a history of colorectal cancer
Source text: III. Orally-delivered aminoglycosides reduce development of colorectal adenomas in patients with previous colorectal cancer. […] We determine the proportion of patients with adenomas, the number of recurrent adenomas, and the time to the development of adenoma between randomization and subsequent colonoscopic examinations. Relative risks are adjusted for age, sex, cancer stage, the number of colonoscopic examinations, and the time to first colonoscopy.

Smad3 mutant mice = test: Colorectal tumor development in Smad3 mutant mice given antibiotics in drinking water; format: in vivo
Description: I. Orally-delivered aminoglycosides reduce development of colon cancer in animal models predisposed to colon neoplasia. Smad3 mutant and APC/MIN mice are fed on a standard laboratory diet, with aminoglycoside antibiotics added to the water. […] Metronidazole was diluted in sterile drinking water to a final concentration of 0.5 mg/ml. The same concentrations are used for either combined or separate drug trials.
Smad3 mutant mice are maintained in 129Sv strain; APC/MIN mice are maintained in C57BL/6J. Both Smad3 mutant and APC/MIN mice are started on antibiotics at 5 weeks of age (range: 4-6 weeks). Mice are monitored and scored for survival and visible rectal tumors. Mice are sacrificed when showing severe distress (typically rectal prolapse with significant dehydration,. hypokinesis, cachexia). At sacrifice mice are dissected and their overall state assessed. Large intestines were harvested, opened longitudinally, and tumor number, location, and size recorded.

[2] = tested on: cultured angiogenin-secreting tumor cells; conditions: injected, mice; cited from earlier work
colorectal polyps = test: Double-blind, placebo-controlled study of colorectal polyps in patients with familial adenomatous polyposis; format: in vivo, human; conditions: 1 or 2 g/day orally, after six months, change from base line
Description: II. […] All patients undergo endoscopy at the beginning and end of the study. The number and size of polyps is determined from photographs and videotapes; the response to treatment is expressed as the mean percent change from base line.

[3] = tested on: cultured human endothelial cells; conditions: cited from earlier work
[4] = tested on: chick embryo chorioallantoic membranes (CAM); conditions: cited from earlier work
phospholipase C (PLC) = conditions: cited from earlier work

## neomycin
[1]
  incidence of colon adenocarcinomas: may actually increase the incidence of colon adenocarcinomas
Colorectal adenomas
  occurrence of new colorectal adenomas: decreases the occurrence of new colorectal adenomas
Smad3 mutant mice; oral treatment, at 24 weeks, 9 of 10 untreated mice developed colorectal tumors
  mice in which development of tumors was prevented: 11 of 12
[2]
  growth of transplanted angiogenin-secreting tumor cells: able to reduce growth
Colorectal polyps
  reduction in the mean number of colorectal polyps: ~30%
  reduction in the polyp burden (the sum of polyp diameters): ~30%
[3]
  angiogenin-induced cell proliferation: able to reduce angiogenin-induced cell proliferation and angiogenesis
[4]
  angiogenin-induced angiogenesis / anti-angiogenic activity: able to reduce angiogenin-induced cell proliferation and angiogenesis
Phospholipase C (PLC)
  PLC inhibition: inhibits PLC

## COc1ccc2c(c1)CC[C@@H]1[C@@H]2CC[C@]2(C)[C@@H](NCCCCCCN3C(=O)C=CC3=O)CC[C@@H]12 [U-73122]
[3]
  angiogenin-induced cell proliferation: similarly inhibited angiogenin-induced cell proliferation and angiogenesis
[4]
  angiogenin-induced angiogenesis / anti-angiogenic activity: similarly inhibited angiogenin-induced cell proliferation and angiogenesis
Phospholipase C (PLC)
  PLC inhibition: PLC inhibitor

## NC[C@@H]1O[C@H](O[C@H]2[C@@H](O)[C@H](O[C@@H]3[C@@H](O)[C@H](N)C[C@H](N)[C@H]3O[C@H]3O[C@H](CO)[C@@H](O)[C@H](O)[C@H]3N)O[C@@H]2CO)[C@H](N)[C@@H](O)[C@@H]1O [paromomycin]
Colorectal adenomas
  occurrence of new colorectal adenomas: decreases the occurrence of new colorectal adenomas
Colorectal polyps
  reduction in the mean number of colorectal polyps: ~30%
  reduction in the polyp burden (the sum of polyp diameters): ~30%
[4]
  angiogenin-induced angiogenesis / anti-angiogenic activity: lack anti-angiogenic activity

## NCC[C@H](O)C(=O)N[C@@H]1C[C@H](N)[C@@H](O[C@H]2O[C@H](CN)[C@@H](O)[C@H](O)[C@H]2O)[C@H](O)[C@H]1O[C@H]1O[C@H](CO)[C@@H](O)[C@H](N)[C@H]1O [amikacin]
[4]
  angiogenin-induced angiogenesis / anti-angiogenic activity: lack anti-angiogenic activity

## [H]/N=C(/N)N[C@H]1[C@H](O)[C@@H](O)[C@H](O[C@@H]2O[C@@H](C)[C@](O)(C=O)[C@H]2O[C@@H]2O[C@@H](CO)[C@H](O)[C@@H](O)[C@@H]2NC)[C@@H](N/C(N)=N\[H])[C@@H]1O [streptomycin]
[4]
  angiogenin-induced angiogenesis / anti-angiogenic activity: lack anti-angiogenic activity

## Cc1ncc([N+](=O)[O-])n1CCO [metronidazole]
Smad3 mutant mice; 0.5 mg/ml in drinking water
  tumor development compared with non-treated controls: not significantly different from non-treated controls

## gentamicin
[4]
  angiogenin-induced angiogenesis / anti-angiogenic activity: lack anti-angiogenic activity
